Holding throughout (format): in vivo
Test [1] deals with Diabrotica Balteata (Corn Root Worm). Kind of test: whole plant or invertebrate. The settings on record: 96 h, read-out: effect in at least one of the two categories (mortality or growth inhibition). As for the experimental part: Example B3: Diabrotica Balteata (Corn Root Worm)
Maize sprouts, placed on an agar layer in 24-well microtiter plates were treated with aqueous test solutions prepared from 10,000 ppm DMSO stock solutions by spraying. After drying, the plates were infested with L2 larvae (6 to 10 per well). The samples were assessed for mortality and growth inhibition in comparison to untreated samples 4 days after infestation.

Test [2] concerns Spodoptera littoralis (Egyptian Cotton Leaf Worm). Description: Spodoptera littoralis cotton leaf disc spray test. The settings on record: foliar, 72 h, application rate 200 ppm, L1 larvae, 3 days after infestation, read-out: control (at least one of mortality, anti-feedant effect, growth inhibition). The procedure:
Spodoptera littoralis (Egyptian Cotton Leaf Worm)
Cotton leaf discs were placed on agar in 24-well microtiter plates and sprayed with aqueous test solutions prepared from 10,000 ppm DMSO stock solutions. After drying, the leaf discs were infested with five L1 larvae. The samples were assessed for mortality, anti-feedant effect, and growth inhibition in comparison to untreated samples 3 days after infestation. Control of Spodoptera littoralis by a test sample is when at least one of mortality, anti-feedant effect, and growth inhibition is higher than the untreated sample.

For test [3], the system named is Plutella xylostella (Diamond Back Moth). Kind of test: whole plant or invertebrate. The settings on record: 120 h, application rate 200 ppm, L2 larvae, 5 days after infestation, read-out: effect in at least one of the two categories (mortality or growth inhibition). As for the experimental part:
Example B2: Plutella xylostella (Diamond Back Moth)
24-well microtiter plates with artificial diet were treated with aqueous test solutions prepared from 10,000 ppm DMSO stock solutions by pipetting. After drying, the plates were infested with L2 larvae (10 to 15 per well). The samples were assessed for mortality and growth inhibition in comparison to untreated samples 5 days after infestation.

Where [4] appears, read: application rate 200 ppm, L2 larvae, 4 days after infestation.

Read-outs that look alike come from different tables or passages of the source.

On to `NC(=O)C1CCN(Cc2nc(-c3ccc(Cl)cc3)nn2-c2ccccc2F)CC1` [Example 1.47], for which the percent effect (mortality or growth inhibition) at 200 ppm in test [1] (setting [4]) was at least 80%. The percent control (mortality, anti-feedant effect or growth inhibition) at 200 ppm in test [2] is at least 80%. As to `Cc1ccc(-c2nc(CN3CCC(c4ncccn4)CC3)n(-c3ccccc3F)n2)cc1F` [Example 1.92], in test [1] (setting [4]), the percent effect (mortality or growth inhibition) at 200 ppm is at least 80%. Further, the percent control (mortality, anti-feedant effect or growth inhibition) at 200 ppm in test [2] is at least 80%.

For the compound `Cc1ccc(-n2nc(-c3ccc(Cl)cc3)nc2CN2CCC(c3ncccn3)CC2)cc1C` [Example 1.73], in test [1] (setting [4]), the percent effect (mortality or growth inhibition) at 200 ppm was at least 80%. Same read-out and setting: the figure for `CCOC(=O)C1CCCCN1Cc1nc(-c2ccc(Cl)cc2)nn1-c1ccccc1F` (stereo not shown) [Example 5.22] is at least 80%. With `COc1ccc(-c2nc(CN3CCC(c4ncccn4)CC3)n(-c3ccccc3F)n2)cc1` [Example 1.101], in test [1] (setting [4]), the percent effect (mortality or growth inhibition) at 200 ppm was at least 80%. The percent control (mortality, anti-feedant effect or growth inhibition) at 200 ppm in test [2] was at least 80%. With `Cc1cccc(-c2nc(CN3CCC(c4ncccn4)CC3)n(-c3ccccc3F)n2)c1` [Example 1.37], the percent effect (mortality or growth inhibition) at 200 ppm in test [1] (setting [4]) was at least 80%. Moreover, in test [2], the percent control (mortality, anti-feedant effect or growth inhibition) at 200 ppm is at least 80%. As to `CCC1CCCN(Cc2nc(-c3ccc(Cl)cc3)nn2-c2ccccc2F)C1` (stereo not shown) [Example 5.21], the percent effect (mortality or growth inhibition) at 200 ppm in test [1] (setting [4]) is at least 80%. Turning to `Fc1ccccc1-n1nc(-c2ccc(Cl)cc2)nc1CN1CC=C(c2ccc(Cl)cn2)CC1` [Example 3.1], the percent effect (mortality or growth inhibition) at 200 ppm in test [1] is at least 80%.

For the compound `Clc1ccc(-c2nc(CN3CCC(c4ncccn4)CC3)n(-c3cccc(Cl)c3)n2)cc1` [Example 1.69], the percent effect (mortality or growth inhibition) at 200 ppm in test [1] (setting [4]) was at least 80%.

`Cc1ccc(C)c(-n2nc(-c3ccc(Cl)cc3)nc2CN2CCC(c3ncccn3)CC2)c1` [Example 1.74]: in test [1] (setting [4]), the percent effect (mortality or growth inhibition) at 200 ppm was at least 80%. Same read-out and setting: the figure for `Cc1ccccc1-c1nc(CN2CCC(c3ncccn3)CC2)n(-c2ccccc2F)n1` [Example 1.36] is at least 80%. With `Fc1ccccc1-n1nc(-c2ccc(Cl)cc2)nc1CN1CCC2(CC1)CC(C(F)(F)F)=NO2` [Example 5.5], the percent effect (mortality or growth inhibition) at 200 ppm in test [1] (setting [4]) was at least 80%. Also, the percent control (mortality, anti-feedant effect or growth inhibition) at 200 ppm in test [2] is at least 80%. For the compound `Cc1ccc(-n2nc(-c3ccc(Cl)cc3)nc2CN2CCC(c3ncccn3)CC2)c(C)c1` [Example 1.87], the percent effect (mortality or growth inhibition) at 200 ppm in test [1] (setting [4]) is at least 80%. Besides, the percent control (mortality, anti-feedant effect or growth inhibition) at 200 ppm in test [2] is at least 80%. Turning to `Fc1ccccc1-n1nc(-c2ccc(Cl)cc2)nc1CN1CCC(c2ncc[nH]2)CC1` [Example 1.112], the percent effect (mortality or growth inhibition) at 200 ppm in test [1] (setting [4]) was at least 80%. On the same count and under the same terms, the figure for `Fc1ccccc1-n1nc(C2CC2)nc1CN1CCC(c2ncccn2)CC1` [Example 1.93] is at least 80%.

On to `Fc1ccccc1-n1nc(-c2ccc(Cl)cc2)nc1CN1CCC(c2cc(Cl)cc(Cl)c2)(C(F)(F)F)C1` (stereo not shown) [Example 5.2], for which the percent effect (mortality or growth inhibition) at 200 ppm in test [3] was at least 80%.

`Cn1ccnc1C1CCN(Cc2nc(-c3ccc(Cl)cc3)nn2-c2ccccc2F)CC1` [Example 1.117]: in test [1] (setting [4]), the percent effect (mortality or growth inhibition) at 200 ppm is at least 80%. In test [2], the percent control (mortality, anti-feedant effect or growth inhibition) at 200 ppm is at least 80%. For the compound `Cc1ccc(-n2nc(-c3ccc(Cl)cc3)nc2CN2CCC(c3ncccn3)CC2)cc1` [Example 1.52], in test [1] (setting [4]), the percent effect (mortality or growth inhibition) at 200 ppm was at least 80%. Also, the percent control (mortality, anti-feedant effect or growth inhibition) at 200 ppm in test [2] was at least 80%.

`CCOC(=O)C1CCCN(Cc2nc(-c3ccc(Cl)cc3)nn2-c2ccccc2F)C1` (stereo not shown) [Example 5.17]: the percent effect (mortality or growth inhibition) at 200 ppm in test [1] (setting [4]) is at least 80%. Consider `Fc1ccccc1-n1nc(-c2ccccn2)nc1CN1CCC(c2ncccn2)CC1` [Example 1.102], for which the percent effect (mortality or growth inhibition) at 200 ppm in test [1] (setting [4]) was at least 80%. Consider `Fc1ccccc1-n1nc(-c2ccccc2)nc1CN1CCC(c2ncccn2)CC1` [Example 1.94], for which the percent effect (mortality or growth inhibition) at 200 ppm in test [1] (setting [4]) was at least 80%. In addition, the percent control (mortality, anti-feedant effect or growth inhibition) at 200 ppm in test [2] is at least 80%.

For `Clc1ccc(-c2nc(CN3CCC(c4ncccn4)CC3)n(-c3cccc(Br)c3)n2)cc1` [Example 1.57], in test [1] (setting [4]), the percent effect (mortality or growth inhibition) at 200 ppm was at least 80%. As for `CCc1nc(CN2CCC(c3ncccn3)CC2)n(-c2ccccc2F)n1` [Example 1.99], the percent effect (mortality or growth inhibition) at 200 ppm in test [1] (setting [4]) is at least 80%. For the compound `Fc1ccccc1-n1nc(-c2ccc(Cl)cc2)nc1CN1CCC2(CC1)CC(C1CC1)=NO2` [Example 5.4], the percent effect (mortality or growth inhibition) at 200 ppm in test [1] (setting [4]) is at least 80%. Also, the percent control (mortality, anti-feedant effect or growth inhibition) at 200 ppm in test [2] was at least 80%. On to `Fc1ccccc1-n1nc(-c2ccc(Cl)cc2)nc1CN1CCC(c2nccs2)CC1` [Example 1.115], for which the percent effect (mortality or growth inhibition) at 200 ppm in test [1] (setting [4]) is at least 80%. Also, in test [2], the percent control (mortality, anti-feedant effect or growth inhibition) at 200 ppm is at least 80%.

On to `Cc1ccnc(C2CCN(Cc3nc(-c4ccc(Cl)cc4)nn3-c3ccccc3F)CC2)n1` [Example 1.125], for which, in test [1] (setting [4]), the percent effect (mortality or growth inhibition) at 200 ppm was at least 80%. Further, the percent control (mortality, anti-feedant effect or growth inhibition) at 200 ppm in test [2] was at least 80%.

On to `Clc1ccc(-c2nc(CN3CCC(c4ncccn4)CC3)n(-c3ccc(Cl)c(Cl)c3)n2)cc1` [Example 1.50], for which, in test [1] (setting [4]), the percent effect (mortality or growth inhibition) at 200 ppm was at least 80%. `COc1ccc(-n2nc(-c3ccc(Cl)cc3)nc2CN2CCC(c3ncccn3)CC2)cc1` [Example 1.79]: in test [1] (setting [4]), the percent effect (mortality or growth inhibition) at 200 ppm was at least 80%. Further, the percent control (mortality, anti-feedant effect or growth inhibition) at 200 ppm in test [2] was at least 80%.

As to `CC(C)c1nc(CN2CCC(c3ncccn3)CC2)n(-c2ccccc2F)n1` [Example 1.100], the percent effect (mortality or growth inhibition) at 200 ppm in test [1] (setting [4]) is at least 80%.

As to `Cc1ccc(-c2nc(CN3CCC(c4ncccn4)CC3)n(-c3ccccc3F)n2)cc1` [Example 1.95], the percent effect (mortality or growth inhibition) at 200 ppm in test [1] (setting [4]) was at least 80%. In addition, the percent control (mortality, anti-feedant effect or growth inhibition) at 200 ppm in test [2] is at least 80%.

For `Cc1cccc(-n2nc(-c3ccc(Cl)cc3)nc2CN2CCC(c3ncccn3)CC2)c1C` [Example 1.82], the percent effect (mortality or growth inhibition) at 200 ppm in test [1] (setting [4]) was at least 80%. Also, the percent control (mortality, anti-feedant effect or growth inhibition) at 200 ppm in test [2] was at least 80%. For `Fc1ccccc1-n1nc(-c2ccc(Cl)cc2)nc1CN1CCC(c2ccncn2)CC1` [Example 1.116], in test [1] (setting [4]), the percent effect (mortality or growth inhibition) at 200 ppm is at least 80%. In test [2], the percent control (mortality, anti-feedant effect or growth inhibition) at 200 ppm was at least 80%.

As for `Fc1ccccc1-n1nc(-c2ccc(Cl)cc2)nc1CN1CCC(c2cscn2)CC1` [Example 1.119], in test [1] (setting [4]), the percent effect (mortality or growth inhibition) at 200 ppm was at least 80%. Besides, the percent control (mortality, anti-feedant effect or growth inhibition) at 200 ppm in test [2] was at least 80%.

`Fc1ccccc1-n1nc(-c2ccc(Cl)cc2)nc1CN1CCC(c2ncno2)CC1` [Example 1.121]: the percent effect (mortality or growth inhibition) at 200 ppm in test [1] (setting [4]) was at least 80%. The same measure, in the same setting: the figure for `Cc1cccc(-n2nc(-c3ccc(Cl)cc3)nc2CN2CCC(c3ncccn3)CC2)c1` [Example 1.51] is at least 80%. With `Clc1ccc(-c2nc(CN3CCC(c4ncccn4)CC3)n(-c3ccc(Cl)cc3Cl)n2)cc1` [Example 1.65], the percent effect (mortality or growth inhibition) at 200 ppm in test [1] (setting [4]) was at least 80%. In addition, in test [2], the percent control (mortality, anti-feedant effect or growth inhibition) at 200 ppm was at least 80%. For `Cc1nnc(C2CCN(Cc3nc(-c4ccc(Cl)cc4)nn3-c3ccccc3F)CC2)o1` [Example 1.118], the percent effect (mortality or growth inhibition) at 200 ppm in test [1] (setting [4]) is at least 80%. As to `Fc1ccccc1-n1nc(Cc2ccc(Cl)cc2)nc1CN1CCC(c2ncccn2)CC1` [Example 1.91], the percent effect (mortality or growth inhibition) at 200 ppm in test [1] (setting [4]) is at least 80%. Moreover, the percent control (mortality, anti-feedant effect or growth inhibition) at 200 ppm in test [2] is at least 80%. In the case of `COc1cccc(-n2nc(-c3ccc(Cl)cc3)nc2CN2CCC(c3ncccn3)CC2)c1` [Example 1.75], the percent effect (mortality or growth inhibition) at 200 ppm in test [1] (setting [4]) was at least 80%. Still for that read-out and setting: the figure for `CCC1CCCCN1Cc1nc(-c2ccc(Cl)cc2)nn1-c1ccccc1F` (stereo not shown) [Example 5.16] is at least 80%. The same measure, in the same setting: the figure for `Fc1ccccc1-n1nc(-c2ccc(Cl)cc2)nc1CN1CCC(C(F)(F)F)CC1` [Example 1.5] is at least 80%. The same measure, in the same setting: the figure for `CC(C)n1nc(-c2ccc(Cl)cc2)nc1CN1CCC(c2ncccn2)CC1` [Example 1.60] is at least 80%; for `CC1CCCN1Cc1nc(-c2ccc(Cl)cc2)nn1-c1ccccc1F` (stereo not shown) [Example 5.30] it is at least 80%; for `Clc1ccc(-c2nc(CN3CCC(c4ncccn4)CC3)n(-c3cc(Cl)ccc3Cl)n2)cc1` [Example 1.86] it is at least 80%. `Fc1ccccc1-n1nc(-c2cccs2)nc1CN1CCC(c2ncccn2)CC1` [Example 1.96]: the percent effect (mortality or growth inhibition) at 200 ppm in test [1] (setting [4]) is at least 80%.

As to `Clc1ccc(-c2nc(CN3CCC(c4ncccn4)CC3)n(C3CCC3)n2)cc1` [Example 1.58], the percent effect (mortality or growth inhibition) at 200 ppm in test [1] (setting [4]) was at least 80%.

Consider `Fc1ccccc1-n1nc(-c2ccc(Cl)cc2)nc1CN1CCC(c2ncon2)CC1` [Example 1.113], for which the percent effect (mortality or growth inhibition) at 200 ppm in test [1] (setting [4]) is at least 80%. The percent control (mortality, anti-feedant effect or growth inhibition) at 200 ppm in test [2] is at least 80%.

The values above are taken from patent US20190161499A1, “PESTICIDALLY ACTIVE 1,2,4-TRIAZOLE DERIVATIVES” (SYNGENTA PARTICIPATIONS AG, priority 2015, published 2019).
